Tests used:
[1] = target: T1, cardiac troponin C (cTnC) (Homo sapiens, UniProt P63316, C35S/C84S); assay: 2D [1H, […]]-HSQC NMR titration; format: binding
[2] = target: T1, cardiac troponin C (cTnC); assay: 2D [1H, […]]-HSQC NMR titration; format: binding; remark: listed apart in the source

SMILES | Kd [1] | 2D [1H,15N]-HSQC NMR titration [2]
Clc1cccc(Nc2ccccc2)c1 [3-Cl-DPA, 3-Chlorodiphenylamine] | 6 ± 1 µM | –
CC(C)COCC(CN(Cc1ccccc1)c1ccccc1)N1CCCC1 (centres unmarked) [bepridil] | – | As bepridil is titrated into cTnC, NMR signals corresponding to the cNTnC domain move as the conformational equilibrium shifts
